Assay results: the NIST ThermoML archive (doi:10.1016/j.jct.2019.02.006)
Numbers after ± are expanded uncertainties.

Conditions: Liquid, Ebulliometric method (Recirculating still)

Compound: COC(=O)CCCCC(=O)OC [dimethyl 1,6-hexanedioate]
- vapor or sublimation pressure (390.98 K): 2 ± 0.3 kPa
- vapor or sublimation pressure (410.82 K): 5.2 ± 0.3 kPa
- vapor or sublimation pressure (422.47 K): 8.3 ± 0.3 kPa

Compound: CCCCCCC [heptane]
- vapor or sublimation pressure (371.53 K): 101.3 ± 5.1 kPa

Compound: COC(=O)CCCC(=O)OC [dimethyl pentanedioate]
- vapor or sublimation pressure (376.09 K): 2 ± 0.3 kPa
- vapor or sublimation pressure (395.8 K): 5.2 ± 0.3 kPa
- vapor or sublimation pressure (407.11 K): 8.3 ± 0.3 kPa

Compound: COC(=O)CCC(=O)OC [dimethyl 1,4-butanedioate]
- vapor or sublimation pressure (363.39 K): 2 ± 0.3 kPa
- vapor or sublimation pressure (382.13 K): 5.2 ± 0.3 kPa
- vapor or sublimation pressure (393.49 K): 8.3 ± 0.3 kPa

Compound: C1CCCCC1 [cyclohexane]
- vapor or sublimation pressure (353.94 K): 101.3 ± 5.1 kPa
